Test results published in patent US8431593B2, “Heteroaryl amide derivatives” (H. Lundbeck A/S, priority 2006, dated 2013).

Target: T1, P2X7 receptor (Homo sapiens, UniProt Q99572)
T1 construct: host or cells: SH-SY5Y
T1 sequence (Q99572 1-595): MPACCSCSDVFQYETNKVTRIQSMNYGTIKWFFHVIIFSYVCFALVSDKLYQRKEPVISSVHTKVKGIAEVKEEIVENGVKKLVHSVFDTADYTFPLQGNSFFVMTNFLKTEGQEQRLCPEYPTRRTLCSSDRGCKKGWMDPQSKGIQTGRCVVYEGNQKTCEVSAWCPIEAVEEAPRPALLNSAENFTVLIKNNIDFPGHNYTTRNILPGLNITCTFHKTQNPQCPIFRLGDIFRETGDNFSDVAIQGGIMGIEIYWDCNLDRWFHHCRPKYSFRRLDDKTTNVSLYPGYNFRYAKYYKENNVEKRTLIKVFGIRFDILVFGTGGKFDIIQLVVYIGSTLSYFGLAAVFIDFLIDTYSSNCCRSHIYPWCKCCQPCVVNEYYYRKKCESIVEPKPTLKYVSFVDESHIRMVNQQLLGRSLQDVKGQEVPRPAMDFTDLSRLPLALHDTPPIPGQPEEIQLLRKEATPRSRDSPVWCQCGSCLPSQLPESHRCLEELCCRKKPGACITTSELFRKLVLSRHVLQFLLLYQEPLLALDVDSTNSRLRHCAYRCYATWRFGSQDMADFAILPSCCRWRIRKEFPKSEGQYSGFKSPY
Assay: P2X7 calcium mobilization assay, high throughput, antagonist activity (Example 4A)
Format: cell-based
Settings: 50% decrease in the fluorescence response of cells exposed to 80 μM 2′(3′)-O-(4-benzoyl-benzoyl)adenosine 5′-triphosphate; Example 4A; read-out: IC50
Outline: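 Antagonism was measured as calcium fluorescence (FLIPR Tetra) in cells seeded one day earlier at 100,000/well, loaded with dye for 1 h and exposed to compound for 1 h at room temperature before agonist. Peak RFU, minus the no-agonist background, was referenced to the mean of the agonist wells.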

IC50, < 2000 nM:
CC1(C)[C@@H]2CC[C@@H](CNC(=O)c3cccc4nc(CC(=O)NC5CCNCC5)cn34)[C@H]1C2 [Compound 592, N-{[(1R,2R,5R)-6,6-dimethylbicyclo[3.1.1]hept-2-yl]methyl}-2-[2-oxo-2-(piperidin-4-ylamino)ethyl]imidazo [1,2-a]pyridine-5-carboxamide]
CC1(C)[C@@H]2CC[C@@H](CNC(=O)c3cccc4nc(CC(=O)N5CCOC(CN)C5)cn34)[C@H]1C2 (stereo partly drawn) [Compound 594, 2-{2-[2-(aminomethyl)morpholin-4-yl]-2-oxoethyl}-N-{[(1R,2R,5R)-6,6-dimethylbicyclo [3.1.1]hept-2-yl]methyl}imidazo[1,2-a]pyridine-5-carboxamide]
Cc1cc(-c2cn3c(C(=O)NCC(CC(C)C)c4cccnc4)cccc3n2)n[nH]1 (stereo not shown) [Compound 595, 2-(5-methyl-1H-pyrazol-3-yl)-N-(4-methyl-2-pyridin-3-ylpentyl)imidazo[1,2-a]pyridine-5-carboxamide]
CNCc1cn2c(C(=O)NCC34CC5CC(CC(C5)C3)C4)cccc2n1 [Compound 596, N-(adamantan-1-ylmethyl)-2-[(methylamino)methyl] imidazo[1,2-a] pyridine-5-carboxamide]
CC(C)NCc1cn2c(C(=O)NCC34CC5CC(CC(C5)C3)C4)cccc2n1 [Compound 597, N-(adamantan-1-ylmethyl)-2-[(isopropylamino)methyl]imidazo [1,2-a]pyridine-5-carboxamide]
N#CCc1cn2c(C(=O)NCC34CC5CC(CC(C5)C3)C4)cccc2n1 [Compound 598, N-(adamantan-1-ylmethyl)-2-(cyanomethyl)imidazo [1,2-a]pyridine-5-carboxamide]
O=C(NCC12CC3CC(CC(C3)C1)C2)c1cccc2nc(CCI)cn12 [Compound 599, N-(adamantan-1-ylmethyl)-2-(2-iodoethyl)imidazo[1,2-a]pyridine-5-carboxamide]
C[C@@H]1CNCCN1C(=O)c1cn2c(C(=O)NCC34CC5CC(CC(C5)C3)C4)cccc2n1 [Compound 600, N-(adamantan-1-ylmethyl)-2-{[(2R)-2-methylpiperazin-1-yl]carbonyl}imidazo[1,2-a]pyridine-5-carboxamide]
C[C@H]1CNCCN1C(=O)c1cn2c(C(=O)NCC34CC5CC(CC(C5)C3)C4)cccc2n1 [Compound 601, N-(adamantan-1-ylmethyl)-2-{[(2S)-2-methylpiperazin-1-yl]carbonyl}imidazo [1,2-a]pyridine-5-carboxamide]
CC1CNCCN1C(=O)c1cn2c(C(=O)NCC34CC5CC(CC(C5)C3)C4)cccc2n1 (stereo not shown) [Compound 602, N-(adamantan-1-ylmethyl)-2-[(2-methylpiperazin-1-yl)carbonyl]imidazo[1,2-a]pyridine-5-carboxamide]
O=C(NCC12CC3CC(CC(C3)C1)C2)c1cccc2nc(C(=O)N3CCNCC3)cn12 [Compound 603, N-(adamantan-1-ylmethyl)-2-(piperazin-1-ylcarbonyl) imidazo[1,2-a]pyridine-5-carboxamide]
C[C@@H]1CN(C(=O)c2cn3c(C(=O)NCC45CC6CC(CC(C6)C4)C5)cccc3n2)CCN1 [Compound 604, N-(adamantan-1-ylmethyl)-2-{[(3R)-3-methylpiperazin-1-yl]carbonyl}imidazo[1,2-a]pyridine-5-carboxamide]
CN(C(=O)c1cn2c(C(=O)NCC34CC5CC(CC(C5)C3)C4)cccc2n1)C1CCCNC1 (stereo not shown) [Compound 605, 5-N-(adamantan-1-ylmethyl)-2-N-methyl-2-N-piperidin-3-ylimidazo[1,2-a]pyridine-2,5-dicarboxamide]
CN(C(=O)c1cn2c(C(=O)NCC34CC5CC(CC(C5)C3)C4)cccc2n1)C1CCNCC1 [Compound 606, 5-N-(adamantan-1-ylmethyl)-2-N-methyl-2-N-piperidin-4-ylimidazo[1,2-a]pyridine-2,5-dicarboxamide]
O=C(NCC12CC3CC(CC(C3)C1)C2)c1cccc2nc(C(=O)N3CCCNCC3)cn12 [Compound 608, N-(adamantan-1-ylmethyl)-2-(1,4-diazepan-1-ylcarbonyl)imidazo[1,2-a]pyridine-5-carboxamide]
O=C(NCC12CC3CC(CC(C3)C1)C2)c1cccc2nc(C(=O)N3C[C@@H]4C[C@H]3CN4)cn12 [Compound 609, N-(adamantan-1-ylmethyl)-2-[(1S,4S)-2,5-diazabicyclo [2.2.1]hept-2-ylcarbonyl]imidazo[1,2-a]pyridine-5-carboxamide]
CN(C)CCCN(C(=O)c1cn2c(C(=O)NCC34CC5CC(CC(C5)C3)C4)cccc2n1)C1CCNCC1 [Compound 610, 5-N-(adamantan-1-ylmethyl)-2-N-[3-(dimethylamino)propyl]-2-N-piperidin-4-ylimidazo[1,2-a]pyridine-2,5-dicarboxamide]
CNC1CCN(C(=O)c2cn3c(C(=O)NCC45CC6CC(CC(C6)C4)C5)cccc3n2)C1 (stereo not shown) [Compound 611, N-(adamantan-1-ylmethyl)-2-{[3-(methylamino)pyrrolidin-1-yl]carbonyl}imidazo[1,2-a]pyridine-5-carboxamide]
CC(C)[C@H]1CNCCN1C(=O)c1cn2c(C(=O)NCC34CC5CC(CC(C5)C3)C4)cccc2n1 [Compound 612, N-(adamantan-1-ylmethyl)-2-{[(2S)-2-isopropylpiperazin-1-yl]carbonyl}imidazo[1,2-a]pyridine-5-carboxamide]
CC(C)[C@@H]1CNCCN1C(=O)c1cn2c(C(=O)NCC34CC5CC(CC(C5)C3)C4)cccc2n1 [Compound 613, N-(adamantan-1-ylmethyl)-2-{[(2R)-2-isopropylpiperazin-1-yl]carbonyl}imidazo[1,2-a]pyridine-5-carboxamido]
CC(C)[C@@H]1CN(C(=O)c2cn3c(C(=O)NCC45CC6CC(CC(C6)C4)C5)cccc3n2)CCN1 [Compound 614, N-(adamantan-1-ylmethyl)-2-{[(3R)-3-isopropylpiperazin-1-yl]carbonyl}imidazo[1,2-a]pyridine-5-carboxamide]
CC(C)[C@H]1CN(C(=O)c2cn3c(C(=O)NCC45CC6CC(CC(C6)C4)C5)cccc3n2)CCN1 [Compound 615, N-(adamantan-1-ylmethyl)-2-{[(3S)-3-isopropylpiperazin-1-yl]carbonyl}imidazo[1,2-a]pyridine-5-carboxamide]
C[C@H]1CN(C(=O)c2cn3c(C(=O)NCC45CC6CC(CC(C6)C4)C5)cccc3n2)CCN1 [Compound 616, N-(adamantan-1-ylmethyl)-2-{[(3S)-3-methylpiperazin-1-yl]carbonyl}imidazo[1,2-a]pyridine-5-carboxamide]
CN(C)CCN(C(=O)c1cn2c(C(=O)NCC34CC5CC(CC(C5)C3)C4)cccc2n1)C1CCNCC1 [Compound 617, 5-N-(adamantan-1-ylmethyl)-2-N-[2-(dimethylamino)ethyl]-2-N-piperidin-4-ylimidazo[1,2-a]pyridine-2,5-dicarboxamide]

Same assay, conditions: 50% decrease in the fluorescence response of cells exposed to 80 μM of 2′(3′)-O-(4-benzoyl-benzoyl)adenosine 5′-triphosphate; Example 4A; read-out: IC50

IC50, < 2000 nM:
COCCN(C(=O)c1cn2c(C(=O)NCC34CC5CC(CC(C5)C3)C4)cccc2n1)C1CCNCC1 [Compound 618, 5-N-(adamantan-1-ylmethyl)-2-N-(2-methoxyethyl)-2-N-piperidin-4-yl imidazo[1,2-a]pyridine-2,5-dicarboxamide]
COCCCN(C(=O)c1cn2c(C(=O)NCC34CC5CC(CC(C5)C3)C4)cccc2n1)C1CCNCC1 [Compound 619, 5-N-(adamantan-1-ylmethyl)-2-N-(3-methoxypropyl)-2-N-piperidin-4-ylimidazo[1,2-a]pyridine-2,5-dicarboxamide]
CN(C)CCN(C(=O)c1cn2c(C(=O)NCC34CC5CC(CC(C5)C3)C4)cccc2n1)C1CCNCC1(C)C (stereo not shown) [Compound 620, 5-N-(adamantan-1-ylmethyl)-2-N-[2-(dimethylamino)ethyl]-2-N-(3,3-dimethylpiperidin-4-yl)imidazo[1,2-a]pyridine-2,5-dicarboxamide]
CN(C)CCCN(C(=O)c1cn2c(C(=O)NCC34CC5CC(CC(C5)C3)C4)cccc2n1)C1CCNCC1(C)C (stereo not shown) [Compound 621, 5-N-(adamantan-1-ylmethyl)-2-N-[3-(dimethylamino)propyl]-2-N-(3,3-dimethylpiperidin-4-yl)imidazo[1,2-a]pyridine-2,5-dicarboxamide]
